Assay results reported in patent US20240408216A1, “PROTEIN INHIBITOR OR DEGRADING AGENT, PHARMACEUTICAL COMPOSITION CONTAINING SAME AND PHARMACEUTICAL USE” (JING MEDICINE TECHNOLOGY (SHANGHAI) LTD., priority 2021, published 2024).

What was measured:
[1] = tested on: BaF3 (EGFR WT); test: Cell proliferation IC50 assay (Cell Titer GLO), BaF3 WT cells; type: cell-based; settings: Mus musculus, Ba/F3 EGFR, Table 6, 10 ng/ml EGF, 72 h
Procedure: (§1) IC50 of compounds in the present invention was determined by Cell Titer GLO reagent from Promega. The procedures are as follows:
(§2) Tumor cells were cultured in specified medium in an incubator at 37° C. and 5% CO2. The cells were passaged periodically. Cells at the logarithmic growth phase were collected for plating at a density of 2000-4000 cells/well. The next day, the compounds of the present invention were serially diluted and added to the cells, with DMSO being the negative control and the culture media without cells being the blank control. The plate was incubated in the incubator for 72 h. The cell viability assay was performed by adding the detection reagents to the cell culture media according to Cell Titer GLO reagent instructions and detecting luminescent signals on an EnVision microplate reader (PerkinElmer).
(§3) Inhibition of cell growth by the compounds of the present invention was plotted by Prism Graphpad software for statistically calculating the IC50 of the compound of the present invention.

[2] = tested on: BaF3 (EGFR L858R/T790M/C797S); test: Cell proliferation IC50 assay (Cell Titer GLO), BaF3 LTC cells; type: cell-based; settings: Mus musculus, Ba/F3 EGFR, Table 6, 72 h
Procedure: as §1, §2, §3

[3] = target: T1, BaF3 (EGFR Del19/C797S) (Homo sapiens, UniProt P00533, C797S, cells depend on it, form not given); test: Cell proliferation IC50 assay (Cell Titer GLO), BaF3 DC cells; type: cell-based, mouse; settings: Table 6, 72 h
T1 construct: BaF3 (EGFR Del19/C797S)|DC|RPMI1640 + 10% FBS
T1 sequence (P00533 with tags, fused parts or gaps DEL746-750/C797S, form open): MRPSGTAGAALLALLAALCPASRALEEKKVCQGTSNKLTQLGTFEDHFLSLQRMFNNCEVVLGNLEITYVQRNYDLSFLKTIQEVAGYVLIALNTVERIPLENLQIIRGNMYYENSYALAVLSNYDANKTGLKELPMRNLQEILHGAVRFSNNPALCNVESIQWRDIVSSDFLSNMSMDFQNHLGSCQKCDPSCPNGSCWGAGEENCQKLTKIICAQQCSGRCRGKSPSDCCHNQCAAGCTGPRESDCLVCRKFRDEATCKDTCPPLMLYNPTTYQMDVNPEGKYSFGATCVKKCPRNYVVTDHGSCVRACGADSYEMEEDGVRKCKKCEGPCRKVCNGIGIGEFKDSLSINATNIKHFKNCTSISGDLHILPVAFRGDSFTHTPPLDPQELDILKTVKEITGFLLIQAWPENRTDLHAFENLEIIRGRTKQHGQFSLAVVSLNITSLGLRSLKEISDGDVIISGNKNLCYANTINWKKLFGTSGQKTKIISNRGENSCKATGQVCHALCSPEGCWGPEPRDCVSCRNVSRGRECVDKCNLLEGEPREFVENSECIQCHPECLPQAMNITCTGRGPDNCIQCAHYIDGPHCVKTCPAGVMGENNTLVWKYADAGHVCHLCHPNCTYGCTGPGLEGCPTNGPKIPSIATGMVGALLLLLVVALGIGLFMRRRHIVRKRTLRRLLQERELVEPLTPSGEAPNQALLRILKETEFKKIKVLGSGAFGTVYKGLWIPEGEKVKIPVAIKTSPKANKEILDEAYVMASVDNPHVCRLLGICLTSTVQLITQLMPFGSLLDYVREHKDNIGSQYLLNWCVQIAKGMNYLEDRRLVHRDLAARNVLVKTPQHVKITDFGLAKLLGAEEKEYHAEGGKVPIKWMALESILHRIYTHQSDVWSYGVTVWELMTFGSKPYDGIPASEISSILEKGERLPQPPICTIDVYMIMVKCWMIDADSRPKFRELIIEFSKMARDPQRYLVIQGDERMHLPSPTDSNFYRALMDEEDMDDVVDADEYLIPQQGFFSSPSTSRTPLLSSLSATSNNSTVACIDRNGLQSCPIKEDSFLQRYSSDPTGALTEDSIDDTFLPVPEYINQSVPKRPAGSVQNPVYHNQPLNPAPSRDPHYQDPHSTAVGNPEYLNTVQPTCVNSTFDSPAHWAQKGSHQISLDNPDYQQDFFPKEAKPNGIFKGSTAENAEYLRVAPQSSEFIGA
Procedure: as §1, §2, §3

[4] = tested on: A431; test: Cell proliferation IC50 assay (Cell Titer GLO), A431 cells; type: cell-based; settings: Homo sapiens, A-431; Table 6; A431, 72 h; read-out: A431 IC50
Procedure: as §1, §2, §3

| SMILES | IC50 [1] [nM] | IC50 [2] [nM] | IC50 [3] [nM] | IC50 [4] [nM] |
| --- | --- | --- | --- | --- |
| CCc1cc(Nc2ncc(Cl)c(Nc3ccccc3P(C)(C)=O)n2)c(OC)cc1N1CCC(N2CCN(CCOc3cccc4c3CN(C3CCC(=O)NC3=O)C4=O)CC2=O)CC1 (centres unmarked) [Example E118] | > 4000 | 112 | 6.3 | 1340 |
| CCc1cc(Nc2ncc(Cl)c(Nc3ccccc3P(C)(C)=O)n2)c(OC)cc1N1CCC(N2CCN(CCCCNc3cccc4c3CN(C3CCC(=O)NC3=O)C4=O)CC2)CC1 (centres unmarked) [Example E119] | > 4000 | 67.3 | 5.6 | 1400 |
| CCc1cc(Nc2nc(Nc3ccccc3P(C)(C)=O)c3cc[nH]c3n2)c(OC)cc1N1CCC(N2CCN(CCCCOc3cc(F)cc4c3CN(C3CCC(=O)NC3=O)C4=O)CC2)CC1 (centres unmarked) [Example E141] | > 4000 | 50.3 | 14.7 | > 4000 |
| CCc1cc(Nc2ncc(Cl)c(Nc3ccccc3P(C)(C)=O)n2)c(OC)cc1N1CCC(N2CCN(CCC#Cc3ccc4c(c3)c(N3CCC(=O)NC3=O)nn4C)CC2)CC1 [Example E145] | > 4000 | 506 | 79.1 | 1110 |
| CCc1cc(Nc2ncc(-c3ccn(C)n3)c(Nc3ccccc3P(C)(C)=O)n2)c(OC)cc1N1CCC(N2CCN(CCOc3cccc4c3CN(C3CCC(=O)NC3=O)C4=O)CC2)CC1 (centres unmarked) [Example E147] | 1570 | 2000 | 56.1 | > 4000 |
| CCc1cc(Nc2ncc(C(=O)N3CCCC3)c(Nc3ccccc3P(C)(C)=O)n2)c(OC)cc1N1CCC(N2CCN(CCOc3cccc4c3CN(C3CCC(=O)NC3=O)C4=O)CC2)CC1 (centres unmarked) [Example E148] | > 4000 | > 4000 | 9.3 | > 4000 |
| CCc1cc(N2CCC(N3CCN(CCCCOc4cccc5c4CN(C4CCC(=O)NC4=O)C5=O)CC3)CC2)c(CC)cc1Nc1nc(Nc2ccccc2P(C)(C)=O)c2cc[nH]c2n1 (centres unmarked) [Example E153] | > 4000 | 65.9 | 26.3 | > 4000 |
| CCc1cc(Nc2nc(Nc3ccccc3P(C)(C)=O)c3cc[nH]c3n2)c(C(F)(F)F)cc1N1CCC(N2CCN(CCCCOc3cccc4c3CN(C3CCC(=O)NC3=O)C4=O)CC2)CC1 (centres unmarked) [Example E154] | > 4000 | 3430 | 446 | > 4000 |

These reach a lower IC50 [1]. Values come first.

| IC50 [1] [nM] | IC50 [2] [nM] | IC50 [3] [nM] | IC50 [4] [nM] | SMILES |
| --- | --- | --- | --- | --- |
| 595 | 79.6 | 8.7 | 1270 | COc1cc(N2CCC(N3CCN(CCCCOc4cccc5c4CN(C4CCC(=O)NC4=O)C5=O)CC3)CC2)c(CO)cc1Nc1ncc(Cl)c(Nc2ccccc2P(C)(C)=O)n1 (centres unmarked) [Example E127] |
| 554 | 694 | 60.9 | 963 | CCc1cc(Nc2ncc(Cl)c(Nc3ccccc3P(C)(C)=O)n2)cc(C(N)=O)c1N1CCC(N2CCN(CCCCOc3cccc4c3CN(C3CCC(=O)NC3=O)C4=O)CC2)CC1 (centres unmarked) [Example E139] |
| 792 | 1100 | 124 | > 4000 | CCc1cc(Nc2nc(Nc3ccccc3P(C)(C)=O)c3cc[nH]c3n2)c(C(C)(C)O)cc1N1CCC(N2CCN(CCCCOc3cccc4c3CN(C3CCC(=O)NC3=O)C4=O)CC2)CC1 (centres unmarked) [Example E142] |
| 1200 | 105 | 35.2 | 1370 | CCc1cc(Nc2ncc(Cl)c(Nc3ccccc3P(C)(C)=O)n2)c(OC)cc1N1CCC(N2CCN(CCOc3cccc4c3CN(C3CCC(=O)NC3=O)C4=O)C3(CC3)C2)CC1 (centres unmarked) [Example E144] |
| 1290 | 3480 | 37.2 | > 4000 | CCc1cc(Nc2ncc(-c3nc(C)no3)c(Nc3ccccc3P(C)(C)=O)n2)c(OC)cc1N1CCC(N2CCN(CCOc3cccc4c3CN(C3CCC(=O)NC3=O)C4=O)CC2)CC1 (centres unmarked) [Example E149] |
| 646 | 21.9 | 1.4 | 1850 | CCc1cc(Nc2ncc(Cl)c(Nc3ccccc3P(C)(C)=O)n2)c(OC)cc1N1CCC(N2CCN([C@H]3C[C@@H](Oc4cccc5c4CN(C4CCC(=O)NC4=O)C5=O)C3)CC2)CC1 (some centres unmarked) [Example E159] |
